# Test system: Maize seedlings
# Assay: Maize seedlings shoot weight (seed treatment, greenhouse)
# Type: in vivo
# Procedure: Maize seeds are grown in loamy sand in the greenhouse at 20 C and 70% humidity for 11 days. After 11 days seedlings were cut off above the soil and fresh weight was determined. Compounds are applied at the following concentration: Poncho™ (pesticidal product comprising clothianidin as active ingredient): 250 μg of clothianidin/kernel; VOTiVO™ (product based on the natural soil bacteria Bacillus firmus (strain I-1582): 50 μg/kernel; Compound A of formula (I): 0.01 μg/kernel. The test is evaluated 11 days after the application. 100% means shoot weight which corresponds to that of the untreated control. Efficacy means in this case the additional % of shoot weight in comparison to that of the untreated control.
structure (smiles),measurement,setting,value
CCCCCC/C=C\CCCOc1cccc(C(=O)N[C@@H]2C(O[C@H]3C(O)C(NC(C)=O)C(OC4C(CO)O[C@@H](O[C@H]5C(O)C(NC(C)=O)C(OC6C(CO)OC(O)[C@@H](NC(C)=O)[C@@H]6O)O[C@H]5CO)[C@@H](NC(C)=O)[C@@H]4O)O[C@H]3CO)OC(CO)[C@@H](O)[C@@H]2O)c1 (stereo partly drawn) [Compound A of formula (I)],Efficacy %,"additional % of shoot weight in comparison to untreated control, 11 days after application",7%
same,Seedling shoot weight (g) (Average on 3 replicates),"fresh weight after 11 days in loamy sand, greenhouse 20 C, 70% humidity, clothianidin 250 μg/kernel, VOTiVO 50 μg/kernel, Compound A 0.01 μg/kernel",15.3 g
same,Found %,"shoot weight relative to untreated control (100%), 11 days after application, same application rates",107%
